Positions of bridges follow the written chain, without caps; N, C: chain ends. No end group written: not given here.
Assays:
[1] = system: tibiae of normal adult male mice; assay: In vivo study: daily subcutaneous injection in mice, tibial growth plate width and tibial length; conditions: male Swiss mice, 300 ug/kg/injection s.c., 5 days/week for 4 weeks; for tibial (epiphyseal) growth plate width: mean±sem, controls 0.081-0.094 mm
Procedure: Two groups of 20 sexually mature male Swiss mice aged between 40 and 50 days and weighing 25–32 g, were given daily subcutaneous injections (50 ul) in the loose skin at the nape of the neck for 5 days/week over 4 consecutive weeks. The treated group was injected with peptide at a dose of 300 ug/kg/injection and the control group was injected with vehicle (water). Animals were housed in a room maintained at 20° C. on 12-hour light/dark cycles. They were fed diet 86 rodent pellets (New Zealand Stockfeed Ltd) ad libitum throughout the experiment. Each animal's weight was recorded at the beginning and end of the experiment. One day after the last injection, animals were sacrificed by cervical dislocation. They study had the approval of the local institutional review board.
The tibiae were dissected free of adherent tissue. Tibial lengths were recorded by measuring the distance between the proximal epiphysis and the distal tibio-fibular junction using an electronic micrometer (Digimatic Calipers, Mitutoyo, Japan). Bones were placed in 10% phosphate-buffered formalin for 24 hours and then dehydrated in a graded series of ethanol solutions and embedded, undecalcified, in methylmethacrylate resin. Tibiae were sectioned longitudinally through the frontal plane and calvariae were cut cross-sectionally at the base of the parietal bone. All sections were 4 um think and were cut on a Leitz microtome using a tungsten-carbide knife (Microknife Sharpening, Utah, USA). Sections were mounted on gelatin-coated slides and air-dried. They were stained with Goldner's tri-chrome and examined using an Olympus BX 50 microscope (Olympus Optical Co Ltd, Tokyo, Japan) which was attached to an Osteomeasure Image Analyzer (Osteometrics Inc. Atlanta, Ga.).
Tibial histomorphometric analyses were made from three adjacent sections one third of the way through the anterior/posterior depth of the proximal tibiae. Epiphyseal growth plate thickness was measured at three sites evenly spaced along its length. All measurements were made by one operator who was blinded to the treatment group of each bone.

chondrocytes [2] = assay: Chondrocyte monolayer cell cultures: proliferation (cell counts and [3H]-thymidine incorporation); type: cell-based, dog; conditions: 24 hours
Procedure: Fresh cartilage samples were collected from the tibial plateaus and femoral condyles of mature, healthy crossbred dogs (2–4 years; 20–25 kg). The chondrocytes were isolated as previously described (Connective Tissue Research 1988; 18:205–222). Briefly, the chondrocytes were obtained by pronase and collagenase digestion of the cartilage, then the cells were centrifuged, washed and resuspended in media before being cultured in 75 cm^2 tissue culture flasks. The cells were incubated under 5% CO2 and 95% air at 37° C. Confluence was reached by 7–10 days, at which time the cells were subcultured. After trypsinization, the cells are rinsed and resuspended in fresh medium, then seeded at 5×10^4 cells/ml in 24-well plates (0.5 ml cell suspension per well, ie. 1.4×10^4 cells/cm^2). Proliferation studies (cell counts and thymidine incorporation) were performed. Subconfluent population were changed to serum-free medium with 0.1% bovine serum albumin plus the experimental compounds. Cell numbers were analysed at 24 hours after addition of the peptide or vehicle. The cell numbers were determined using a haemocytometer chamber. Results were expressed per well. [^3H]-thymidine incorporation was assessed by pulsing the cells with [^3H]-thymidine (1 uCi/well) two hours before the end of the experimental incubation. The experiment was terminated at 24 hours by washing the cells in media containing cold thymidine followed by the addition of 10% tricholoroacetic acid. The precipitate was washed twice with ethanol:ether (3:1) and the wells desiccated at room temperature. The residue was redissolved in 2 M KOH at 55° C. for 30 mins, neutralised with 1 M HCl, and an aliquot counted for radioactivity. Results were expressed as dpm per well. For both cell counts and thymidine incorporation, each experiment was performed at least 4 different times using experimental groups consisting of at least 6 wells.

chondrocytes [3] = assay: Chondrocytes 3-dimensional cell cultures in alginate beads: proliferation (cell counts and 3H-thymidine incorporation); type: cell-based, dog
Procedure: Alginate head cultures were established as described by Guo, et al. Culture and growth characteristics of chondrocytes encapsulated in alginated beads. Connective Tissue Research 19:277–297 (1989). Briefly the cells were suspended in a solution of 1.25% (wt/vol) alginate in HEPES (20 mM HEPES buffer pH neutral) at a density of 2×10^6 cells/ml> The suspension of chondrocytes were slowly extruded through a 22-gauge needle in a dropwise manner into 40 ml of 0.1 M CaCl2 solution. After instantaneous gelation, the beads were allowed to further polymerise in CaCl2 solution (10 mins, room temperature). The beads were washed sequentially, twice in 0.15 M NaCl and twice in Dulbecco's modified Eagle's medium (DME). After the washing procedure, the beads were placed into 24-well culture plates (10 beads/well) and fed with 1 ml 10% fetal calf serum (FCS) SMW with 5μg/ml ascorbic acid. The cultures were maintained at 37° C. in a humidified atmosphere of 5% CO2 in air. The medium was changed every second day. […] Cell numbers were analysed at day 8 by exposing alginate beads to 50 mM ethylenediaminetetraacetic acid (EDTA) for approximately 10 minutes at 37° C. […] Tritiated-thymidine incorporation (^3H-thymidine) was assessed by pulsing the beads with ^3H-thymidine (1μCi/well) 48 hours before the end of experimental incubation. […] Pellets were resuspended and counted for radioactivity.

Adrenomedullin-(27–52) (AHQIYQFTDKDKDNVAPRSKISPQGY; listed as Homo sapiens)
tibial (epiphyseal) growth plate width [1]: 0.11 mm

Amylin-(1–8) (KCNTATCA-NH2; disulfide 2-7 (inferred); listed as Rattus norvegicus)
cell numbers (chondrocytes [2]; peptide 10–8M, control 3.23±0.11, p=0.02): 3.63±0.09 ×10^4 | thymidine incorporation (DNA synthesis) (chondrocytes [2]; peptide 10–8M, control 26859±423, p=0.02): 28932±628 dpm | tibial (epiphyseal) growth plate width [1]: 0.111 mm

Amylin (KCNTATCATQRLANFLVHSSNNFGAILSSTNVGSNTY; listed as Rattus norvegicus) [rat amylin sourced from Bachem California]
thymidine incorporation (DNA synthesis) (chondrocytes [2]; per well, amylin concentration not given, control 20725±997): 25937±1203 dpm | cell numbers (chondrocytes [2]; per well, mean±sem, amylin concentration not given, control 4.12±0.23, p=0.01): 5.11±0.21 ×10^4 | thymidine incorporation (DNA synthesis) (chondrocytes [3]; day 8, peptide 10^−10M, control 1135±85, p<0.001): 2584±229 dpm | cell numbers (chondrocytes [3]; day 8, per well, peptide 10^−10M, control 5.58±0.16, p<0.03): 6.07±0.05 ×10^4 | tibial (epiphyseal) growth plate width [1]: 0.108±0.003 mm | total length of the tibiae ([1]; control 11.31±0.07): 11.67±0.09 mm

Adrenomedullin (YRQSMNNFQGLRSFGCRFGTCTVQKLAHQIYQFTDKDKDNVAPRSKISPQGY-NH2; disulfide 16-21 (inferred); ends not checked; UniProt P35318 95-146, looked up) [52-amino acid peptide first described by Kitamura et al; synthesized by solid-phase procedures]
cell numbers (chondrocytes [2]; peptide 10^−9M, control 1.79±0.07, p<0.01): 2.27±0.12 ×10^4

From patent US7208469B2, “Therapeutic method” (Auckland UniServices Limited, priority 1997, dated 2007)
